Among the data in patent US8741906B2 (priority 2011, dated 2014) are EC50 values, retold here.

pEC50: −log10 of the molar value.

A word on the pEC50: it is −log10 of the EC50, conventionally taken in molar units.

In one assay the target is T1, human CB1 receptors (Homo sapiens, UniProt P21554).
T1 construct: expressed in transfected cells; host or cells: CHO cells
Nature of the assay: functional cAMP assay, human CB1. The assay is classed as cell-based. To be noted: CHO cells expressing human CB1, cAMP; read-out: human CB1 EC50. The gist of the method:
(§1)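 CHO cells with human CB1 or CB2 were switched to Krebs Ringer bicarbonate buffer with 1 mM IBMX for 30 min at 30 °C, then given compound for 30 min at 30 °C. cAMP was measured by time-resolved FRET against a cAMP standard curve, and EC50 values were calculated.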

A further assay deals with T2, human CB2 receptors (Homo sapiens, UniProt P34972).
T2 construct: expressed in transfected cells; host or cells: CHO cells
Nature of the assay: functional cAMP assay, human CB2. The assay is classed as cell-based. The note with it: CHO cells expressing human CB2, cAMP; read-out: human CB2 EC50. The gist of the method: as §1
(cAMP levels reflect the balance of adenylyl cyclase and phosphodiesterase activity.)

T1 sequence (P21554 whole entry): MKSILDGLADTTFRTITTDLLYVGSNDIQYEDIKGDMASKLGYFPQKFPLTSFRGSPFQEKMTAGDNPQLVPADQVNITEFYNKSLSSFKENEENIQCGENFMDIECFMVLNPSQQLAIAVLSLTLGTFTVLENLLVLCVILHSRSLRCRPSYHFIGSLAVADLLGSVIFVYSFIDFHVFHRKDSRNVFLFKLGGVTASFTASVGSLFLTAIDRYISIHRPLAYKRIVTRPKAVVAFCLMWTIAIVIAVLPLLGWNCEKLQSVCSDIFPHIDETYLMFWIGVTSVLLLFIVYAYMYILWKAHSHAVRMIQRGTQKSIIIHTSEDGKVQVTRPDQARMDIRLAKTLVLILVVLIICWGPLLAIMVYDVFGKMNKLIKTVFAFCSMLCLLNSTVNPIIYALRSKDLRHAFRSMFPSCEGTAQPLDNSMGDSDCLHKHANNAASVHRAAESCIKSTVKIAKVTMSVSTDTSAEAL
T2 sequence (P34972 whole entry): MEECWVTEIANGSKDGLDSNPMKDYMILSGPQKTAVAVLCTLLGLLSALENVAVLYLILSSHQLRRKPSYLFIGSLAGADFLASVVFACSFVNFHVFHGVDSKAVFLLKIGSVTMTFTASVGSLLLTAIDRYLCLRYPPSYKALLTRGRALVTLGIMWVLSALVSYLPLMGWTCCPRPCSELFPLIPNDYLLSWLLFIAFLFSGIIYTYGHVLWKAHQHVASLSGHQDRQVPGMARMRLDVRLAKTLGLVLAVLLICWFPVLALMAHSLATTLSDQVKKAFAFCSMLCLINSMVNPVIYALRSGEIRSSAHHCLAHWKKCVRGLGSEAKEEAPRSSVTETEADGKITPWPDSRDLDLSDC

Turning to `CC(C)(C)c1nc(N2CCC(F)(F)C2)c2nnn(Cc3ncccc3Cl)c2n1` [Example 98, 5-tert-Butyl-3-(3-chloro-pyridin-2-ylmethyl)-7-(3,3-difluoro-pyrrolidin-1-yl)-3H-[1,2,3]triazolo[4,5-d]pyrimidine], the negative logarithm of the EC50 (pEC50) is 7.01 on human CB1 receptors and 10.00 at human CB2 receptors.
Take `CC(C)(C)c1nc(N2CCC(F)(F)C2)c2nnn(Cc3cc(Cl)cnc3Cl)c2n1` [Example 99, 5-tert-Butyl-3-(2,5-dichloro-pyridin-3-ylmethyl)-7-(3,3-difluoro-pyrrolidin-1-yl)-3H-[1,2,3]triazolo[4,5-d]pyrimidine]: the pEC50 is 6.30 at human CB1 receptors and 9.70 on human CB2 receptors.
`CC(C)(C)c1nc(N2CCC(F)(F)C2)c2nnn(Cc3nc(Cl)ccc3Cl)c2n1` [Example 100, 5-tert-Butyl-3-(3,6-dichloro-pyridin-2-ylmethyl)-7-(3,3-difluoro-pyrrolidin-1-yl)-3H-[1,2,3]triazolo[4,5-d]pyrimidine]: the figures for the pEC50 at human CB1 receptors and on human CB2 receptors were 6.96 and 10.00, respectively.
On to `Cc1nonc1Cn1nnc2c(N3CCC(F)(F)C3)nc(C(C)(C)C)nc21` [Example 101, 5-tert-Butyl-7-(3,3-difluoro-pyrrolidin-1-yl)-3-(4-methyl-furazan-3-ylmethyl)-3H-[1,2,3]triazolo[4,5-d]pyrimidine], for which the pEC50 was below 5.00 on human CB1 receptors and 10.00 at human CB2 receptors.
On to `Cc1noc(Cn2nnc3c(N4CCC(F)(F)C4)nc(C(C)(C)C)nc32)n1` [Example 102, 5-tert-Butyl-7-(3,3-difluoro-pyrrolidin-1-yl)-3-(3-methyl-[1,2,4]oxadiazol-5-ylmethyl)-3H-[1,2,3]triazolo[4,5-d]pyrimidine], for which the pEC50 on human CB1 receptors is below 5.00; on human CB2 receptors it was 9.22.
Take `CC(C)(C)c1nc(N2CCC(F)(F)C2)c2nnn(CCc3ccccc3Cl)c2n1` [Example 103, 5-tert-Butyl-3-[2-(2-chloro-phenyl)-ethyl]-7-(3,3-difluoro-pyrrolidin-1-yl)-3H-[1,2,3]triazolo[4,5-d]pyrimidine]: the pEC50 at human CB1 receptors was 6.38; at human CB2 receptors, 9.40.
Regarding `CC(C)(C)c1nc(N2CCC(F)(F)C2)c2nnn(CCc3cccc(Cl)c3)c2n1` [Example 104, 5-tert-Butyl-3-[2-(3-chloro-phenyl)-ethyl]-7-(3,3-difluoro-pyrrolidin-1-yl)-3H-[1,2,3]triazolo[4,5-d]pyrimidine], the pEC50 on human CB1 receptors is below 5.00; at human CB2 receptors it was 9.05.
The matching figures for `CC(C)(C)c1nc(N2CCC(F)(F)C2)c2nnn(CCc3ccc(Cl)cc3)c2n1` [Example 105, 5-tert-Butyl-3-[2-(4-chloro-phenyl)-ethyl]-7-(3,3-difluoro-pyrrolidin-1-yl)-3H-[1,2,3]triazolo[4,5-d]pyrimidine]: below 5.00 and 8.19.
For the compound `COc1ccc(Cn2nnc3c(N4CC[C@H](O)C4)nc(C(C)(C)C)nc32)cc1` [Example 106, (S)-1-[5-tert-Butyl-3-(4-methoxy-benzyl)-3H-[1,2,3]triazolo[4,5-d]pyrimidin-7-yl]-pyrrolidin-3-ol], the figures for the pEC50 on human CB1 receptors and at human CB2 receptors were below 5.00 and 8.32, respectively.
Regarding `CC(C)(C)c1nc(N2CCC(F)(F)C2)c2nnn([C@@H]3CCOC3)c2n1` [Example 108, 5-tert-Butyl-7-(3,3-difluoro-pyrrolidin-1-yl)-3-(R)-tetrahydro-furan-3-yl-3H-[1,2,3]triazolo[4,5-d]pyrimidine], the figures for the pEC50 on human CB1 receptors and on human CB2 receptors were below 5.00 and 9.52, respectively.
For the compound `CC(C)(C)c1nc(N2CCC(F)(F)C2)c2nnn([C@H]3CCOC3)c2n1` [Example 109, 5-tert-Butyl-7-(3,3-difluoro-pyrrolidin-1-yl)-3-(S)-tetrahydro-furan-3-yl-3H-[1,2,3]triazolo[4,5-d]pyrimidine], the pEC50 on human CB1 receptors was below 5.00; at human CB2 receptors, 9.30.
As to `CC(C)(C)c1nc(N2CCC(F)(F)C2)c2nnn(CC(=O)c3ccccc3Cl)c2n1` [Example 110, 2-[5-tert-Butyl-7-(3,3-difluoro-pyrrolidin-1-yl)-[1,2,3]triazolo[4,5-d]pyrimidin-3-yl]-1-(2-chloro-phenyl)-ethanone], the pEC50 on human CB1 receptors is 6.60; on human CB2 receptors, 9.70.
For `CC(C)(C)c1nc(N2CCC(F)(F)C2)c2nnn(Cc3c(F)ccc(Cl)c3Cl)c2n1` [Example 111, 5-tert-Butyl-3-(2,3-dichloro-6-fluoro-benzyl)-7-(3,3-difluoro-pyrrolidin-1-yl)-3H-[1,2,3]triazolo[4,5-d]pyrimidine], the figures for the pEC50 at human CB1 receptors and on human CB2 receptors were 6.86 and 9.70, respectively.
As for `CC(C)(C)c1nc(N2CCC(F)(F)C2)c2nnn(Cc3ccccc3S(C)(=O)=O)c2n1` [Example 112, 5-tert-Butyl-7-(3,3-difluoro-pyrrolidin-1-yl)-3-(2-methanesulfonyl-benzyl)-3H-[1,2,3]triazolo[4,5-d]pyrimidine], the pEC50 on human CB1 receptors was 8.33; at human CB2 receptors, 10.00.
Regarding `CC(C)(C)c1nc(N2CCC(F)(F)C2)c2nnn(CCc3ccccn3)c2n1` [Example 113, 5-tert-Butyl-7-(3,3-difluoro-pyrrolidin-1-yl)-3-(2-pyridin-2-yl-ethyl)-3H-[1,2,3]triazolo[4,5-d]pyrimidine], the pEC50 on human CB1 receptors was 6.70; at human CB2 receptors, 9.70.
Regarding `CC1(Cn2nnc3c(N4CCC(F)(F)C4)nc(C(C)(C)C)nc32)COC1` [Example 114, 5-tert-Butyl-7-(3,3-difluoro-pyrrolidin-1-yl)-3-(3-methyl-oxetan-3-ylmethyl)-3H-[1,2,3]triazolo[4,5-d]pyrimidine], the pEC50 is below 5.00 on human CB1 receptors and 9.40 on human CB2 receptors.
For `CC(C)(C)c1nc(N2CCC(F)(F)C2)c2nnn(CC(=O)c3cccc(Cl)c3)c2n1` [Example 115, 2-[5-tert-Butyl-7-(3,3-difluoro-pyrrolidin-1-yl)-[1,2,3]triazolo[4,5-d]pyrimidin-3-yl]-1-(3-chloro-phenyl)-ethanone], the pEC50 on human CB1 receptors was below 5.00; on human CB2 receptors, 9.40.
With `CC(C)(C)c1nc(N2CCC(F)(F)C2)c2nnn(CC(=O)c3ccc(Cl)cc3)c2n1` [Example 116, 2-[5-tert-Butyl-7-(3,3-difluoro-pyrrolidin-1-yl)-[1,2,3]triazolo[4,5-d]pyrimidin-3-yl]-1-(4-chloro-phenyl)-ethanone], the pEC50 was below 5.00 on human CB1 receptors and 8.52 at human CB2 receptors.
On the same counts, the results for `CC(C)(C)c1nc(N2CCC(F)(F)C2)c2nnn(CC(=O)c3cccnc3)c2n1` [Example 117, 2-[5-tert-Butyl-7-(3,3-difluoro-pyrrolidin-1-yl)-[1,2,3]triazolo[4,5-d]pyrimidin-3-yl]-1-pyridin 3-yl-ethanone] are below 5.00 and 9.70.
Consider `CC(C)(C)c1nc(N2CCC(F)(F)C2)c2nnn(CC(=O)c3ccncc3)c2n1` [Example 118, 2-[5-tert-Butyl-7-(3,3-difluoro-pyrrolidin-1-yl)-[1,2,3]triazolo[4,5-d]pyrimidin-3-yl]-1-pyridin-4-yl-ethanone], for which the pEC50 at human CB1 receptors is below 5.00; on human CB2 receptors, 9.05.
The matching figures for `CC(C)(C)c1nc(N2CCC(F)(F)C2)c2nnn(Cc3c(Cl)ccc(Cl)c3Cl)c2n1` [Example 119, 5-tert-Butyl-7-(3,3-difluoro-pyrrolidin-1-yl)-3-(2,3,6-trichloro-benzyl)-3H-[1,2,3]triazolo[4,5-d]pyrimidine]: 7.04 and 9.52.
Consider `CC(C)(C)c1nc(N2CCC(F)(F)C2)c2nnn(Cc3cccc(C(F)(F)F)c3Cl)c2n1` [Example 120, 5-tert-Butyl-3-(2-chloro-3-trifluoromethyl-benzyl)-7-(3,3-difluoro-pyrrolidin-1-yl)-3H-[1,2,3]triazolo[4,5-d]pyrimidine], for which the figures for the pEC50 at human CB1 receptors and on human CB2 receptors were 6.74 and 9.15, respectively.
On to `CC(C)(C)c1nc(N2CCC(F)(F)C2)c2nnn(CCc3cccnc3)c2n1` [Example 121, 5-tert-Butyl-7-(3,3-difluoro-pyrrolidin-1-yl)-3-(2-pyridin-3-yl-ethyl)-3H-[1,2,3]triazolo[4,5-d]pyrimidine], for which the pEC50 was below 5.00 on human CB1 receptors and 9.52 at human CB2 receptors.
The matching figures for `CC(C)(C)c1nc(N2CCC(F)(F)C2)c2nnn(CCc3ccncc3)c2n1` [Example 122, 5-tert-Butyl-7-(3,3-difluoro-pyrrolidin-1-yl)-3-(2-pyridin-4-yl-ethyl)-3H-[1,2,3]triazolo[4,5-d]pyrimidine]: below 5.00 and 8.89.
Regarding `CC(C)(C)c1nc(N2CCC(F)(F)C2)c2nnn(Cc3c(C(F)(F)F)ccc(Cl)c3Cl)c2n1` [Example 123, 5-tert-Butyl-3-(2,3-dichloro-6-trifluoromethyl-benzyl)-7-(3,3-difluoro-pyrrolidin-1-yl)-3H-[1,2,3]triazolo[4,5-d]pyrimidine], the pEC50 was 6.51 on human CB1 receptors and 9.10 on human CB2 receptors.
The matching figures for `CC(C)(C)c1nc(N2CCC(F)(F)C2)c2nnn(Cc3nccc(Cl)c3Cl)c2n1` [Example 124, 5-tert-Butyl-3-(3,4-dichloro-pyridin-2-ylmethyl)-7-(3,3-difluoro-pyrrolidin-1-yl)-3H-[1,2,3]triazolo[4,5-d]pyrimidine]: 6.56 and 9.52.
The matching figures for `CC(C)(C)c1nc(N2CCC(F)(F)C2)c2nnn(C3CS(=O)(=O)C3)c2n1` [Example 125, 5-tert-Butyl-7-(3,3-difluoro-pyrrolidin-1-yl)-3-(1,1-dioxo-1λ^6-thietan-3-yl)-3H-[1,2,3]triazolo[4,5-d]pyrimidine]: below 5.00 and 8.72.
As to `CC(C)(C)c1nc(N2CCC(F)(F)C2)c2nnn(C3CCS(=O)(=O)C3)c2n1` (centres unmarked) [Example 126, 5-tert-Butyl-7-(3,3-difluoro-pyrrolidin-1-yl)-3-(1,1-dioxo-tetrahydro-1λ^6-thiophen-3-yl)-3H-[1,2,3]triazolo[4,5-d]pyrimidine], the values for the pEC50 on human CB1 receptors and at human CB2 receptors were 6.30 and 9.52, respectively.
